Results on 15 compounds are retold here after patent US10954214B2 (Janssen Pharmaceutica NV, priority 2016, dated 2021).

The target of experiment [1] is full-length MALT1 protein (Strep-MALT1(1-824)-His) (Homo sapiens (Human), UniProt Q9UDY8). In words: MALT1 Biochemical Protease Assay (Ac-LRSR-AMC substrate). Conditions: 10 nM FL MALT1, 200 μM Ac-LRSR-AMC, 4 h at RT; read-out: MALT1_Biochemical activity (Ac-LRSR-amc) IC50. Put shortly:
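Fluorescence from AMC release off the quenched LRSR substrate was read after a 4 h reaction at RT. Values were normalised to no-enzyme and uninhibited controls and fitted for IC50 and Hill coefficient.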

For experiment [2], the system named is IL6 secretion by TMD8 ABC-DLBCL cells. In words: Human IL6 Mesoscale assay (TMD-8). The class given is cell-based. The conditions noted are these: Homo sapiens, TMD8; TMD-8 cells, 24 h. Put shortly: (§1)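 TMD8 or OCI-LY3 cells (100,000/well) were exposed to compounds in 9 twofold dilutions from 15 μM to 58.6 nM (0.3% DMSO) for 24 h at 37 °C. Supernatant IL6 and IL10 were quantified by MSD electrochemiluminescence immunoassay. DMSO defined maximum signal and BTK inhibitor RN486 (30 nM–131 pM) defined maximum inhibition.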

Experiment [3] concerns IL10 secretion by TMD8 ABC-DLBCL cells. In words: Human IL10 Mesoscale assay (TMD-8). The class given is cell-based. The conditions noted are these: Homo sapiens, TMD8; TMD-8 cells, 24 h. Put shortly: as §1
Experiment [4] has as its system IL6 secretion by OCI-LY3 ABC-DLBCL cells. In words: Human IL6 Mesoscale assay (OCI-LY3). The class given is cell-based. Conditions: 24 h. Put shortly: as §1
Experiment [5] has as its system IL10 secretion by OCI-LY3 ABC-DLBCL cells. In words: Human IL10 Mesoscale assay (OCI-LY3). The class given is cell-based. Conditions: 24 h. Put shortly:
as §1

full-length MALT1 protein (Strep-MALT1(1-824)-His), sequence (Q9UDY8 whole entry): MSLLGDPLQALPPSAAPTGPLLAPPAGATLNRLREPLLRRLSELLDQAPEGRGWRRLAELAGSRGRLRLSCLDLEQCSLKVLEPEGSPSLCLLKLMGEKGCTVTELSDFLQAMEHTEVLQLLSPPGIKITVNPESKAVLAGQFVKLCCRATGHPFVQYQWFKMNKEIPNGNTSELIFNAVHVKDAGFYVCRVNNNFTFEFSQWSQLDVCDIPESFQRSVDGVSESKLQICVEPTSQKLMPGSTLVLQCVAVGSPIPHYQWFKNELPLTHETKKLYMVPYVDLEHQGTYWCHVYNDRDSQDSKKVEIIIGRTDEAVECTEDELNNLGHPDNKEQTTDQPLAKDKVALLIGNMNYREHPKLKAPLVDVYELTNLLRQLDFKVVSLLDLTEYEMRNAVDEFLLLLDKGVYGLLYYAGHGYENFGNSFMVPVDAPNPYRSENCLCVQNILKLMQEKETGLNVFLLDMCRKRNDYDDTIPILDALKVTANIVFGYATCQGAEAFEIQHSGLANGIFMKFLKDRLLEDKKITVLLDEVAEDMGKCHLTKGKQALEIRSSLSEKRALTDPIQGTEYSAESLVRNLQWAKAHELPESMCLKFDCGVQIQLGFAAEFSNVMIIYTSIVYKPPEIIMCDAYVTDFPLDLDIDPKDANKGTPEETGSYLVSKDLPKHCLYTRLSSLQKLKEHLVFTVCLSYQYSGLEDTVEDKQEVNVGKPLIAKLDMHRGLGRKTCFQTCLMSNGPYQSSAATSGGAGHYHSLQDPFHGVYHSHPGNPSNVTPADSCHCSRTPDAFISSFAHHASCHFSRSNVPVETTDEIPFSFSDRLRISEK

For orientation: IC50 means the concentration at which inhibition is half-maximal. Consider `C[C@@H](O)c1nccc2c(-n3ncc(C(=O)Nc4cnc(-n5nccn5)c(Cl)c4)c3C(F)(F)F)cccc12` (single isomer, unassigned) [Cpd 444, (*R)—N-(5-chloro-6-(2H-1,2,3-triazol-2-yl)pyridin-3-yl)-1-(1-(1-hydroxyethyl)isoquinolin-5-yl)-5-(trifluoromethyl)-1H-pyrazole-4-carboxamide], for which the IC50 in experiment [1] was found to be 58 nM; in experiment [2], 107 nM; in experiment [3] it was 63 nM; in experiment [4] (Homo sapiens), 39 nM; in experiment [5] (Homo sapiens), 27 nM.

`N#Cc1cc(NC(=O)c2cnn(-c3cnc4ccccn34)c2C(F)(F)F)cnc1-n1nccn1` [Cpd 189, N-(5-cyano-6-(2H-1,2,3-triazol-2-yl)pyridin-3-yl)-1-(imidazo[1,2-a]pyridin-3-yl)-5-(trifluoromethyl)-1H-pyrazole-4-carboxamide]: the IC50 came to 78 nM in experiment [1]; 107 nM in experiment [2]; 63 nM in experiment [3]; 39 nM in experiment [4] (Homo sapiens); 27 nM in experiment [5] (Homo sapiens).

As for `Cc1nc(-n2nccn2)c(Cl)cc1NC(=O)c1cnn(-c2cccc3nccn23)c1C(F)(F)F` [Cpd 194, N-(5-chloro-2-methyl-6-(2H-1,2,3-triazol-2-yl)pyridin-3-yl)-1-(imidazo[1,2-a]pyridin-5-yl)-5-(trifluoromethyl)-1H-pyrazole-4-carboxamide], the IC50 turned out to be 76 nM in experiment [1]; 78 nM in experiment [2]; 98 nM in experiment [3]; 100 nM in experiment [4] (Homo sapiens); 68 nM in experiment [5] (Homo sapiens).

For the compound `N#Cc1cc(NC(=O)c2cnn(-c3cncc4ccccc34)c2C(F)(F)F)cnc1C(=O)NCCCCN` [Cpd 236, N-(4-aminobutyl)-3-cyano-5-(1-(isoquinolin-4-yl)-5-(trifluoromethyl)-1H-pyrazole-4-carboxamido)picolinamide], the IC50 turned out to be 724 nM in experiment [1]; 1380 nM in experiment [2]; 427 nM in experiment [3]; 380 nM in experiment [4] (Homo sapiens); 309 nM in experiment [5] (Homo sapiens).

As for `Cc1cc(NC(=O)c2cnn(-c3cccc4ncccc34)c2C(F)(F)F)ccc1-n1cc(CN)cn1` [Cpd 238, N-(4-(4-(aminomethyl)-1H-pyrazol-1-yl)-3-methylphenyl)-1-(quinolin-5-yl)-5-(trifluoromethyl)-1H-pyrazole-4-carboxamide], the IC50 was determined as 676 nM in experiment [1]; 32 nM in experiment [2]; 50 nM in experiment [3]; 44 nM in experiment [4] (Homo sapiens); 35 nM in experiment [5] (Homo sapiens).

As for `Cn1ncc2c(-n3ncc(C(=O)Nc4cnc(-n5nccn5)c(C#N)c4)c3C(F)(F)F)ccnc21` [Cpd 241, N-(5-cyano-6-(2H-1,2,3-triazol-2-yl)pyridin-3-yl)-1-(1-methyl-1H-pyrazolo[3,4-b]pyridin-4-yl)-5-(trifluoromethyl)-1H-pyrazole-4-carboxamide], the IC50 in experiment [1] was found to be 562 nM; in experiment [2], 49 nM; in experiment [3], 69 nM; in experiment [4] (Homo sapiens) it was 51 nM; in experiment [5] (Homo sapiens), 37 nM.

Consider `COc1nccc2c(-n3ncc(C(=O)Nc4cnc(-n5nccn5)c(Cl)c4)c3C(F)(F)F)cccc12` [Cpd 243, N-(5-chloro-6-(2H-1,2,3-triazol-2-yl)pyridin-3-yl)-1-(1-methoxyisoquinolin-5-yl)-5-(trifluoromethyl)-1H-pyrazole-4-carboxamide], for which the IC50 is 417 nM in experiment [1]; 363 nM in experiment [2]; 339 nM in experiment [3]; 120 nM in experiment [4] (Homo sapiens); 129 nM in experiment [5] (Homo sapiens).

With `O=C(Nc1cnc(-n2nccn2)c(Cl)c1)c1cnn(-c2cnc(Cl)c3sccc23)c1C(F)(F)F` [Cpd 424, N-(5-chloro-6-(2H-1,2,3-triazol-2-yl)pyridin-3-yl)-1-(7-chlorothieno[2,3-c]pyridin-4-yl)-5-(trifluoromethyl)-1H-pyrazole-4-carboxamide], the figures for the IC50 in experiment [1], in experiment [4] (Homo sapiens) and in experiment [5] (Homo sapiens) were 72 nM, 166 nM and 182 nM, respectively.

As for `O=C(Nc1cnc(-n2nccn2)c(Cl)c1)c1cnn(-c2cnc(N3CC[C@@H](O)C3)c3ccccc23)c1C(F)(F)F` [Cpd 427, (R)—N-(5-chloro-6-(2H-1,2,3-triazol-2-yl)pyridin-3-yl)-1-(1-(3-hydroxypyrrolidin-1-yl)isoquinolin-4-yl)-5-(trifluoromethyl)-1H-pyrazole-4-carboxamide], the 50% inhibitory concentration (IC50) in experiment [1] came to 9 nM; in experiment [4] (Homo sapiens), 204 nM; in experiment [5] (Homo sapiens), 158 nM.

`CSc1ncc(-n2ncc(C(=O)Nc3cnc(-n4nccn4)c(Cl)c3)c2C(F)(F)F)c2ccccc12` [Cpd 429, N-(5-chloro-6-(2H-1,2,3-triazol-2-yl)pyridin-3-yl)-1-(1-(methylthio)isoquinolin-4-yl)-5-(trifluoromethyl)-1H-pyrazole-4-carboxamide]: the values for the IC50 in experiment [1], in experiment [4] (Homo sapiens) and in experiment [5] (Homo sapiens) were 30 nM, 251 nM and 112 nM, respectively.

Turning to `O=C(Nc1cnc(-n2nccn2)c(Cl)c1)c1cnn(-c2cnc(N3CC[C@H](O)C3)c3sccc23)c1C(F)(F)F` [Cpd 431, (S)—N-(5-chloro-6-(2H-1,2,3-triazol-2-yl)pyridin-3-yl)-1-(7-(3-hydroxypyrrolidin-1-yl)thieno[2,3-c]pyridin-4-yl)-5-(trifluoromethyl)-1H-pyrazole-4-carboxamide], the IC50 was 17 nM in experiment [1], 117 nM in experiment [4] (Homo sapiens) and 95 nM in experiment [5] (Homo sapiens).

Turning to `Cc1nc(-n2nccn2)c(Cl)cc1NC(=O)c1cnn(-c2cnc(N3CC(O)C3)c3sccc23)c1C(F)(F)F` [Cpd 433, N-(5-chloro-2-methyl-6-(2H-1,2,3-triazol-2-yl)pyridin-3-yl)-1-(7-(3-hydroxyazetidin-1-yl)thieno[2,3-c]pyridin-4-yl)-5-(trifluoromethyl)-1H-pyrazole-4-carboxamide], the values for the IC50 in experiment [1], in experiment [4] (Homo sapiens) and in experiment [5] (Homo sapiens) were 170 nM, 589 nM and 427 nM, respectively.

As to `Cc1ncc(-n2ncc(C(=O)Nc3cnc(-n4nccn4)c(Cl)c3)c2C(F)(F)F)c2ccsc12` [Cpd 434, N-(5-chloro-6-(2H-1,2,3-triazol-2-yl)pyridin-3-yl)-1-(7-methylthieno[2,3-c]pyridin-4-yl)-5-(trifluoromethyl)-1H-pyrazole-4-carboxamide], the results for the IC50 in experiment [1], in experiment [4] (Homo sapiens) and in experiment [5] (Homo sapiens) were 214 nM, 288 nM and 174 nM, respectively.

Take `O=C(Nc1cnc(-n2nccn2)c(Cl)c1)c1cnn(-c2cnc(C3CC3)c3sccc23)c1C(F)(F)F` [Cpd 435, N-(5-chloro-6-(2H-1,2,3-triazol-2-yl)pyridin-3-yl)-1-(7-cyclopropylthieno[2,3-c]pyridin-4-yl)-5-(trifluoromethyl)-1H-pyrazole-4-carboxamide]: the figures for the IC50 in experiment [1], in experiment [4] (Homo sapiens) and in experiment [5] (Homo sapiens) were 170 nM, 79 nM and 81 nM, respectively.

Turning to “N-(5-cyano-6-(2H-1,2,3-triazol-2-yl)pyridin-3-yl)-1-(imidazo[1,2-a]pyrazin-5-yl)-3-(trifluoromethyl)-1H-pyrazole-4-carboxamide [Cpd 275]”, the IC50 in experiment [1] came to 138 nM; in experiment [4], 240 nM; in experiment [5], 234 nM.
